The text below walks through data of patent US20040167164A1, “Compositions and methods for treating particular chemical addictions and mental illnesses” (priority 1998, published 2004).

The subject of data set [1] is craving and abstinence symptoms. Put plainly: Unintentional simple blind study with defective AMPT capsules. The following applies: capsules containing less than half the intended amount of AMPT. The format is in vivo, human. The source says:
Moreover, it was confirmed that the effective agent in abolishing craving and abstinence symptoms in humans was the action of AMPT and none of the other agents given—Akineton or Polycitra—when in our first studies in humans, unknowingly we administered to patients capsules in which the amount of AMPT contained was less than half the amount of AMPT they should have had. The excessive amount of filler (calcium stearate) put in the capsulating machine in order to render the blended mixture more fluid and less compact, given the heavy consistency of the AMPT that was otherwise difficult for incorporation into capsules, was so excessive that it decreased the amount of AMPT in the capsules to less than half of what it should have been.
Once we knew the cause of the failure, we started to administer the proper dosage of AMPT. The patients then responded. […] The number of patients treated with different addictions, convinced us that the association of AMPT with Haloperidol produces very outstanding and beneficial results.

Data set [2] concerns rats made dependent on alcohol. Put plainly: Rats made dependent on alcohol (25% alcohol solution). The following applies: AMPT 300 mg per kg of body weight. The format is in vivo. The procedure:
Subsequently, it was observed that rats made dependent on alcohol (25% alcohol solution) would prefer again to drink plain water, instead of the alcohol solution upon which they had been made dependent, when treated with AMPT (300 mg per kg of body weight), with their preference being manifested after 2-4 days of treatment.

Data set [3] is classed as in vivo. Particulars: with Polycitra orally, urine pH about 7.8 to 8. The source says: Once known that AMPT produced crystalluria, which prevented its use in humans, the present inventor conducted research to find a solution to the crystalluria problem. Specifically, this research was directed to provide a composition containing AMPT that could be used in the treatment of patients suffering from different conditions and without the formation of AMPT crystalluria. This was accomplished with extensive research in animals, such as mice, rats, mongrel and beagle dogs, to which AMPT with a urine alkalinizer was administered. The alkalinization was obtained with Polycitra, administered orally, and in an amount to obtain a urine pH of about 7.8 to 8.

The subject of data set [4] is rats exposed to cigarette extract and smoke. The data set is described as follows: Rats given cigarette extract water and cigarette smoke, choice test. The data set is classed as in vivo. The following applies: after 18 hours. The source says: A cigarette extract was obtained by burning cigarettes and collecting the tar, nicotine, and other products of cigarette combustion by a perforated plastic tube tied to the exhaust of a miniature vacuum cleaner. The air and smoke was passed through a container of water in which the cigarette extract was deposited. This drinking water was subsequently given to the animals. In addition to bottle feeding rats with the cigarette extract water (equivalent to 6 cigarettes per rat per day), the rats were also exposed to cigarette smoke. The rats were exposed for 2 hours at 8 hour intervals, for a total of 6 hours a day, to cigarette smoke in a sealed chamber. After a period of 4 months, 24 animals died of different causes, pneumonia among them, and 66 survived. The remaining 66 animals were divided in two groups: 35 were treated with AMPT orally, and 31 were kept as controls. The urine was alkalinized in both groups with Polycitra to a pH of about 7.8.
At the end of 4 months, all rats were given the choice to continue drinking the same cigarette extract contaminated water or drink pure drinking water in equal amounts. All animals were given the choice to be in the cigarette smoke filled chamber or to use clean air quarters. […]

A further data set deals with addiction to heroin. As to the method:
(§1) Sixteen patients, randomly selected, addicted to heroin, cocaine, or cocaine and alcohol, were assigned to 3 different treatment groups, as follows:
(§2) a) A group of 6 patients, 3 of them addicted to heroin, and another 3 addicted to cocaine plus alcohol, were treated with AMPT alone.
(§3) b) Another group of 6 patients, 3 addicted to heroin and another 3 to cocaine plus alcohol, were treated with Haloperidol alone.
(§4) c) Another group of 4 patients, 2 addicted to heroin and another 2 addicted to cocaine and alcohol, were treated with placebo from the first day of admission.
(§5) The treatment protocol was as follows:
(§6) 2) All patients received the same proper amount of the alkalinizer Polycitra to produce a urinary pH around 7.8.
(§7) 4) All patients started treatment immediately after they arrived before they could develop any signs of withdrawal.
(§8) 5) Because of the difficulty to fulfill the above requirement of having consumed drugs on the same day of admission, all patients could not be treated simultaneously. This requirement was instated to maintain similarity with many other patients in our general program, where patients are started on treatment immediately after they arrive, even if they arrive immediately after consuming large amounts of the addicting drug(s).

The subject of the next data set is heroin addiction. The data set is described as follows: Case reports, heroin addiction.
For data set [5], the system named is addiction to cocaine plus alcohol. The data set is described as follows: 16 patient study, patients addicted to cocaine plus alcohol. The following applies: three patients. The data set is classed as in vivo, human. As to the method:
as §1, §2, §3, §4, §5, §6, §7, §8

Data set [6] has as its system patients with dual disorder. The data set is described as follows: Length of hospitalization of treated patients (Table I). The following applies: human, in vivo.
Data set [7] deals with morphine addicted monkeys. The data set is described as follows: Craving and abstinence syndrome in narcotic-addicted monkeys. The format is in vivo. The following applies: bar-presses; withdrawal symptoms, aggressive behavior. From the text: Equally the same, at present it is well known that all addictions have in common a biochemical factor—the alteration of the dopamine synthesis and its transporters.
Based on the above, we further hypothesized that the combination of both agents would render better results than any one of them alone.

For data set [8], the system named is tobacco addiction (nicotine). Put plainly: Treatment of smokers (nicotine dependence). The arrangement: species or system human. The following applies: in vivo.
Procedure: Furthermore, the present inventor utilized the combination of Haloperidol and AMPT by administering small doses of Haloperidol, 2 mg, (6 mgs total per day) for a healthy human, weighing 70 kg, simultaneously with the initiation of treatment with AMPT.
Generally, the administration of Haloperidol was discontinued after 7-10 days, while AMPT was administered for a period of at least three months in doses of 250 mg b.i.d.
Data set [9] concerns homovanilic acid (HVA), a dopamine metabolite. Put plainly: Urinary dopamine metabolites during Haloperidol administration. The format is in vivo, human. Particulars: for dopamine metabolites (HVA) in urine: bipolar, manic and paranoid schizophrenic patients. As to the method:
While studying human subjects, diagnosed with bipolar illness, the effects of administering Haloperidol on the metabolites of the neurotransmitter dopamine (DA) were analyzed.
The urinary studies were done for a period of 6 weeks in eight patients chosen for the study (three manic patients and five schizophrenics of the paranoid type).

Another data set deals with alcoholism. The data set is described as follows: Treatment of alcoholic patients. The following applies: follow-up 2 to 3 years. The format is in vivo, human.

Structures are written as SMILES. “And” between values parts separate entries of the source, which are not always exact repeats. Identical values can stand only once. “Also recorded” adds a separate entry of the source.

`CC(N)(Cc1ccc(O)cc1)C(=O)O` (stereo not drawn) [AMPT, alpha-methyl-para-tyrosine]: the patient response entry in data set [1] is recorded as “failed to respond”. Further, the “time until preference for plain water instead of alcohol solution” value in data set [2] was 2 to 4 days. Moreover, in data set [3], the “safety (autopsy, macroscopic, microscopic, electron-microscopy)” value was “safety being confirmed by autopsy”. In data set [4], the choice of chamber result is listed as “totally avoiding the smoke filled compartment”. Further, the “choice of drinking water” value in data set [4] (AMPT orally, discontinued two days in advance) is “chose to continue drinking the pure water”. For the same compound, the “day when patients had no craving or abstinence symptoms” value in the data set with addiction to heroin (three patients) is “sixth day”. Further, the “time to discharge from hospital” value in the data set on heroin addiction (case reports 1, 2, 16, 17, 18) was 65 days and 78 days. Also, in the data set with heroin addiction (case reports 1, 2, 17, 18), the “craving and abstinence symptoms” value is “no abstinence symptoms appearing”. Moreover, the “relapse to drugs at follow-up” value in the data set on heroin addiction (follow-up 14 months to 1½ years) was “had not taken any drugs”. Moreover, in data set [5], the “day when craving for cocaine started to remit” value was “fifth day” and the “day when craving for cocaine was totally extinguished” value is “seventh”. For the same compound, in data set [6], the “Average Length of Hospitalization” value is 47 days, the “Longest Hospitalization” value is 97 days and the “Shortest Hospitalization” value is 26 days. Further, the “time to almost total cessation of the acute symptoms” value in the data set on schizophrenia and mania (Haloperidol 10-15 mg t.i.d. when added) lay within 24 to 30 h. Moreover, the “relapse of symptoms at follow-up on maintenance” value in the data set with schizophrenia and mania (case reports 8, 10, 11, follow-up 1-2 years) was “did not have any more phases of mania or depression”. Besides, the “craving and manifestations of the abstinence syndrome” value in data set [7] was “abolition of craving and withdrawal in all animals; also recorded: abolish the craving for morphine and the manifestations of the abstinence syndrome”. In data set [8], the “time until craving to smoke is lost” value is 2 to 4 days and 2 to 3 days.

On to `OC(CCN1CCCCC1)(c1ccccc1)C1CC2C=CC1C2` (stereo not shown) [Akineton], for which the “dopamine metabolites (HVA) in urine” value in data set [9] is reported as “not related to the increase in dopamine metabolites”.

Turning to `O=C(CCCN1CCC(O)(c2ccc(Cl)cc2)CC1)c1ccc(F)cc1` [Haloperidol, 4-[4-(p-chlorophenyl)-4-hydroxy-piperidino]-4′-fluorobutyrophe], in data set [9] (Haloperidol exclusively, up to 60 mg a day, three paranoid and two manic patients), the “clinical symptoms after a month of treatment” value is “not totally controlled”. Besides, in data set [9], the “dopamine metabolites (HVA) in urine” value is “increasing; also recorded: increased gradually and quantitatively in urine”. The “time to maximum HVA concentration in urine” value in [9] (continued Haloperidol administration) is recorded as 3-4 weeks. In addition, the “overall conclusion on treatment of addiction” value in the data set with addiction to heroin (16 patient study, heroin and cocaine plus alcohol) was “useless”. In addition, in the data set on addiction to heroin (human, in vivo), the “severity of withdrawal symptoms compared with no treatment agent” value is reported as “more severe”. Also, the “onset of severe manifestations of withdrawal” value in the data set on addiction to heroin (three patients) was 26 to 30 h. Further, in [5] (up to sixth day), the craving for cocaine result was “did not subside”. Moreover, the “craving and manifestations of the abstinence syndrome” value in [7] is on record as “did not modify the craving”.

Consider `O=C1CC[C@@]2(O)[C@H]3Cc4ccc(O)c5c4[C@@]2(CCN3CC2CC2)[C@H]1O5` [Naltrexone], for which the “relapse into alcohol at follow-up” value in the data set with alcoholism was “none”.
